Results on one compound are retold here after US12018026B1, “Pyrido[4,3-e][1,2,3]triazolo[1,5-a]pyrimidine as CK2 inhibitors” (KING FAISAL UNIVERSITY, priority 2024, dated 2024).

Molecules are shown by their SMILES.

Assay [1] addresses T1, recombinant human CK2 (RRββ-holoenzyme) (Homo sapiens, UniProt P68400).
T1 construct: purchased Millipore
The experiment in a line: CK2 Kinase Assay (33P-ATP, substrate peptide RRRDDDSDDD). Format: biochemical. The following applies: final ATP concentration 15 μM, 10 min at 30° C.; read-out: protein kinase CK2 IC50. How it is done:
CK2 Kinase Assay was conducted using the protocol as described in Pierre F. et al; J. Med. Chem. 2011, 54, 635-654. The tested compounds in aqueous solution were added at a volume of 10 μL to a reaction mixture comprising 10 μL of assay dilution buffer (ADB; 20 mM MOPS, pH 7.2, 25 mM β-glycerol phosphate, 5 mM EGTA, 1 mM sodium orthovanadate, and 1 mM dithiothreitol), 10 μL of substrate peptide (RRRDDDSDDD, dissolved in ADB at a concentration of 1 mM), 10 μL of recombinant human CK2 (RRββ-holoenzyme, 25 ng dissolved in ADB; Millipore). Reactions were initiated by the addition of 10 μL of ATP solution (90% 75 mMMgCl2, 75 μM ATP (final ATP concentration: 15 μM) dissolved in ADB; 10% [γ-33P] ATP (stock 1mCi/100 L; 3000 Ci/mmol (Perkin-Elmer) and maintained for 10 min at 30° C. The reactions were quenched with 100 μL of 0.75% phosphoric acid and then transferred to and filtered through a phosphor cellulose filter plate (Millipore). After washing each well five times with 0.75% phosphoric acid, the plate was dried under vacuum for 5 min and, following the addition of 15 μL of scintillation fluid to each well, the residual radioactivity was measured using a Wallac luminescence counter. The IC50 values were derived from eight concentrations of test inhibitors.

In assay [2] the test system is MIAPaCa-2 (pancreas). The assay is described as follows: In vitro cytotoxic activity MTT assay, MIAPaCa-2. The following applies: Homo sapiens, MIA PaCa-2; cells exposed for 96 hours; read-out: Cytotoxicity activity IC50, MIAPaCa-2 (pancreas). Format: cell-based. How it is done:
(§1) Compounds 1-16 were screened for their in vitro cytotoxic activity utilizing a 3-(4,5-dimethyl-thiazol-2-yl)-2,5-diphenyltetrazolium bromide (MTT) assay against selected cancer human cell lines consisting of PC3 (prostate), HCT116 (colon), A375 (melanoma), H1299 (lung), MIAPaCa-2 (pancreas), HL60 (leukemia), MCF7 (breast), MDA-MB-231 (breast) (T. Mosmann, J. Immunol. Meth., 1983, 65, 55-63). The cells were cultured at 37° C. in RMPI1640 medium supplemented with 10% fetal bovine serum, 50 IU/mL penicillin, and 50 μg/mL streptomycin in a 5% CO2 incubator. All cells were sub-cultured 3 times/week by trypsinisation. Viable cells were seeded and allowed to adhere for 12 hours before a test drug was added in 96-well plates at an initial density of 1.0×10^5 cells/mL. Tumor cell lines were separately exposed to various concentrations of the tested compounds followed by incubation at a temperature of 37° C. during 96 hours inside a medium of fresh RMPI 1640. Cells were subsequently incubated at 37° C. using MTT at 0.5 mg/mL during 4 hours. After removal of supernatant, formazan crystals were dissolved in isopropanol and the optical density was measured at 570 nm. CX-4945 was used as a positive control.
Background: Tetrazolium dyes change colour on reduction, which living cells bring about.

The subject of assay [3] is MCF7 (breast). The experiment in a line: In vitro cytotoxic activity MTT assay, MCF7. Format: cell-based. The following applies: Homo sapiens, cells exposed for 96 hours, read-out: Cytotoxicity activity IC50, MCF7 (breast). Here is the method:
as §1

Assay [4] relates to HCT116 (colon). The assay is described as follows: In vitro cytotoxic activity MTT assay, HCT116. Format: cell-based. The following applies: Homo sapiens, HCT-116; cells exposed for 96 hours; read-out: Cytotoxicity activity IC50, HCT116 (colon). How it is done: as §1
For assay [5], the system named is MDA-MB-231 (breast). The experiment in a line: In vitro cytotoxic activity MTT assay, MDA-MB-231. Format: cell-based. The following applies: Homo sapiens, cells exposed for 96 hours, read-out: Cytotoxicity activity IC50, MDA-MB-231 (breast). Here is the method:
as §1

The test system of assay [6] is A375 (melanoma). The experiment in a line: In vitro cytotoxic activity MTT assay, A375. Format: cell-based. The following applies: Homo sapiens, A-375; cells exposed for 96 hours; read-out: Cytotoxicity activity IC50, A375 (melanoma). Here is the method: as §1
Assay [7] concerns H1299 (lung). The assay is described as follows: In vitro cytotoxic activity MTT assay, H1299. The following applies: Homo sapiens, NCI-H1299; cells exposed for 96 hours; read-out: Cytotoxicity activity IC50, H1299 (lung). Format: cell-based. How it is done: as §1
For assay [8], the system named is HL60 (leukemia). The assay is described as follows: In vitro cytotoxic activity MTT assay, HL60. Format: cell-based. The following applies: Homo sapiens, HL-60; cells exposed for 96 hours; read-out: Cytotoxicity activity IC50, HL60 (leukemia). How it is done:
as §1

Assay [9] has as its system PC3 (prostate). The assay is described as follows: In vitro cytotoxic activity MTT assay, PC3. Format: cell-based. The following applies: Homo sapiens; cells exposed for 96 hours; read-out: Cytotoxicity activity IC50, PC3 (prostate). How it is done:
as §1

T1 sequence (P68400 whole entry): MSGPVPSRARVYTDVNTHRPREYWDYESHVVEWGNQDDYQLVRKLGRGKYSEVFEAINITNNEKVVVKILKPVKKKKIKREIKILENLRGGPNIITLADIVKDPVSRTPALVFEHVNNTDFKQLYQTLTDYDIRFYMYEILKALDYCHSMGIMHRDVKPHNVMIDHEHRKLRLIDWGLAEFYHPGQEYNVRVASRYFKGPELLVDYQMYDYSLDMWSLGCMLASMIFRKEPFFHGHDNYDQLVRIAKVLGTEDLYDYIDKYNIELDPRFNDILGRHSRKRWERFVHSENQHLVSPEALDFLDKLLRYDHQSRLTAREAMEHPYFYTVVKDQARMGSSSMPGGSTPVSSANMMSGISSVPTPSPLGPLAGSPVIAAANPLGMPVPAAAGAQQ
T1 sequence (P67870 whole entry partner): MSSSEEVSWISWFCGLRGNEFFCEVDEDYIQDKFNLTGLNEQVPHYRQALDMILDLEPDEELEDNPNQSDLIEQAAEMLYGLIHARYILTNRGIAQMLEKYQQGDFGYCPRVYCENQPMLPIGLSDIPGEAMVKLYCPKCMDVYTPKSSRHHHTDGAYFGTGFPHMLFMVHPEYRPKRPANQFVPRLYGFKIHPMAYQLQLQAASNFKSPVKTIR

`O=C(O)c1nnn2c1nc(Nc1cccc(Cl)c1)c1ccncc12` [Compound 1, 5-((3-chlorophenyl)amino)pyrido[4,3-e][1,2,3]triazolo[1,5-a]pyrimidine-3-carboxylic acid]: the IC50 (usually the point on the concentration scale where inhibition reaches its midpoint) in assay [1] came to 0.024 µM; in assay [2] it was 1.1 µM; in assay [3], 4.7 µM; in assay [4] it was 2.5 µM; in [5] it was 4.2 µM; in assay [6], 5.7 µM. In addition, the IC50 in assay [7] came to 3.3 µM; in [8] it was 5.4 µM; in assay [9], 1.4 µM.
